Tested on: MV-4-11 cells
Test: Gene expression microarray analysis (Affymetrix PrimeView) and GSEA
Type: cell-based, human
Set-up: RFU PODN (11730768_x_at) / Fold change /veh PODN (11730768_x_at) / RFU LINC00158 (11744669_a_at) / Fold change /veh LINC00158 (11744669_a_at) / RFU DUSP10 (11751237_a_at) / Fold change /veh DUSP10 (11751237_a_at) / RFU ID3 (11757404_x_at) / Fold change /veh ID3 (11757404_x_at) / RFU PLEKHG5 (11737974_s_at) / Fold change /veh PLEKHG5 (11737974_s_at) / RFU LRRC4B (11730491_at) / Fold change /veh LRRC4B (11730491_at) / RFU GIMAP4 (11747438_a_at) / Fold change /veh GIMAP4 (11747438_a_at) / RFU KRT8 (11758183_x_at) / Fold change /veh KRT8 (11758183_x_at) / RFU CNN1 (11734310_a_at) / Fold change /veh CNN1 (11734310_a_at) / RFU VPS37D (11726825_at) / Fold change /veh VPS37D (11726825_at) / RFU C10orf10 (11716522_x_at) / Fold change /veh C10orf10 (11716522_x_at) / RFU KIR2DL2 /// KIR2DL4 /// KIR2DL5A /// KIR2DL5B /// KIR2DS1 /// KIR2DS2 /// KIR2DS3 /// KIR2DS4 /// KIR3DL3 /// KIR3DL3 /// KIR3DS1 (11738374_at) / Fold change /veh KIR2DL2 /// KIR2DL4 /// KIR2DL5A /// KIR2DL5B /// KIR2DS1 /// KIR2DS2 /// KIR2DS3 /// KIR2DS4 /// KIR3DL3 /// KIR3DL3 /// KIR3DS1 (11738374_at) / RFU C1QL1 (11718748_at) / Fold change /veh C1QL1 (11718748_at) / RFU TMPRSS4 (11747572_a_at) / Fold change /veh TMPRSS4 (11747572_a_at) / RFU HAMP (11756126_x_at) / Fold change /veh HAMP (11756126_x_at) / RFU RNFT2 (11725882_a_at) / Fold change /veh RNFT2 (11725882_a_at) / RFU NR4A2 (11747474_a_at) / Fold change /veh NR4A2 (11747474_a_at) / RFU ABCC12 (11746883_a_at) / Fold change /veh ABCC12 (11746883_a_at) / RFU TMEM136 (11760407_x_at) / Fold change /veh TMEM136 (11760407_x_at) / RFU CLDN22 /// WWC2 (11732394_at) / Fold change /veh CLDN22 /// WWC2 (11732394_at) / RFU HLA-DPB1 (11760878_x_at) / Fold change /veh HLA-DPB1 (11760878_x_at) / RFU SPINT1 (11716480_a_at) / Fold change /veh SPINT1 (11716480_a_at) / RFU GAP43 (11754022_s_at) / Fold change /veh GAP43 (11754022_s_at) / RFU A4GNT (11735810_at) / Fold change /veh A4GNT (11735810_at) / RFU PRB3 (11715151_x_at) / Fold change /veh PRB3 (11715151_x_at) / RFU TUBB4B (11761932_at) / Fold change /veh TUBB4B (11761932_at) / RFU CAPN14 (11732068_a_at) / Fold change /veh CAPN14 (11732068_a_at) / RFU TMCC2 (11721928_a_at) / Fold change /veh TMCC2 (11721928_a_at) / RFU IRGQ (11745062_a_at) / Fold change /veh IRGQ (11745062_a_at) / RFU FAM174B (11720279_a_at) / Fold change /veh FAM174B (11720279_a_at) / RFU TMPRSS4 (11748680_a_at) / Fold change /veh TMPRSS4 (11748680_a_at) / RFU FAM212B (11763350_a_at) / Fold change /veh FAM212B (11763350_a_at) / RFU PLEKHG5 (11743358_a_at) / Fold change /veh PLEKHG5 (11743358_a_at) / RFU ZSCAN30 (11745921_a_at) / Fold change /veh ZSCAN30 (11745921_a_at) / RFU CMKLR1 (11741424_a_at) / Fold change /veh CMKLR1 (11741424_a_at) / RFU LOC101060620 /// MAPK8IP1 (11723275_at) / Fold change /veh LOC101060620 /// MAPK8IP1 (11723275_at) / RFU SPTSSB (11747773_x_at) / Fold change /veh SPTSSB (11747773_x_at) / RFU PRSS12 (11739890_at) / Fold change /veh PRSS12 (11739890_at) / RFU BIN1 (11741810_x_at) / Fold change /veh BIN1 (11741810_x_at) / RFU WNT11 (11732464_a_at) / Fold change /veh WNT11 (11732464_a_at) / RFU C10orf10 (11716521_a_at) / Fold change /veh C10orf10 (11716521_a_at) / RFU C5orf56 (11738089_at) / Fold change /veh C5orf56 (11738089_at) / RFU CYB561 (11721691_x_at) / Fold change /veh CYB561 (11721691_x_at) / RFU ANKRD19P (11752326_a_at) / Fold change /veh ANKRD19P (11752326_a_at) / RFU OR2T12 /// OR2T33 /// OR2T8 (11738714_s_at) / Fold change /veh OR2T12 /// OR2T33 /// OR2T8 (11738714_s_at) / RFU VCAN (11748164_a_at) / Fold change /veh VCAN (11748164_a_at) / RFU JSRP1 (11732532_at) / Fold change /veh JSRP1 (11732532_at) / RFU KRTAP10-11 (11738290_x_at) / Fold change /veh KRTAP10-11 (11738290_x_at) / RFU MYO3A (11730013_a_at) / Fold change /veh MYO3A (11730013_a_at) / RFU EBF3 (11725865_a_at) / Fold change /veh EBF3 (11725865_a_at) / RFU CAMK2N1 (11719241_x_at) / Fold change /veh CAMK2N1 (11719241_x_at) / RFU C5orf56 (11738088_a_at) / Fold change /veh C5orf56 (11738088_a_at) / RFU OLFML3 (11715873_a_at) / Fold change /veh OLFML3 (11715873_a_at) / RFU LOC100653217 /// NTM (11731650_a_at) / Fold change /veh LOC100653217 /// NTM (11731650_a_at) / RFU MAPK11 (11762145_a_at) / Fold change /veh MAPK11 (11762145_a_at) / RFU FIZ1 (11724087_x_at) / Fold change /veh FIZ1 (11724087_x_at) / RFU OASL (11726364_x_at) / Fold change /veh OASL (11726364_x_at) / RFU SOX15 (11748057_x_at) / Fold change /veh SOX15 (11748057_x_at) / RFU CD79A (11719716_a_at) / Fold change /veh CD79A (11719716_a_at) / RFU HIST1H1D (11736915_at) / Fold change /veh HIST1H1D (11736915_at) / RFU CASKIN2 (11723855_a_at) / Fold change /veh CASKIN2 (11723855_a_at) / RFU LOC730098 (11760151_x_at) / Fold change /veh LOC730098 (11760151_x_at) / RFU OR4N2 (11742367_at) / Fold change /veh OR4N2 (11742367_at) / RFU PRRT2 (11749266_a_at) / Fold change /veh PRRT2 (11749266_a_at) / RFU SNX32 (11753110_a_at) / Fold change /veh SNX32 (11753110_a_at) / RFU CDHR5 (11726645_a_at) / Fold change /veh CDHR5 (11726645_a_at) / RFU RCAN1 (11760418_a_at) / Fold change /veh RCAN1 (11760418_a_at) / RFU FAM167A (11723789_a_at) / Fold change /veh FAM167A (11723789_a_at) / RFU FAM26E (11764081_at) / Fold change /veh FAM26E (11764081_at) / RFU ISYNA1 (11749810_s_at) / Fold change /veh ISYNA1 (11749810_s_at) / RFU ACY1 (11761880_at) / Fold change /veh ACY1 (11761880_at) / RFU 11764098_at / Fold change /veh 11764098_at / RFU SAMD14 (11745864_x_at) / Fold change /veh SAMD14 (11745864_x_at) / RFU NPB (11741838_a_at) / Fold change /veh NPB (11741838_a_at) / RFU TMPRSS6 (11731388_a_at) / Fold change /veh TMPRSS6 (11731388_a_at) / RFU KRTAP10-2 (11738614_at) / Fold change /veh KRTAP10-2 (11738614_at) / RFU ARHGAP8 /// PRR5-ARHGAP8 (11727945_x_at) / Fold change /veh ARHGAP8 /// PRR5-ARHGAP8 (11727945_x_at) / RFU KRTAP5-7 /// NADSYN1 (11734609_at) / Fold change /veh KRTAP5-7 /// NADSYN1 (11734609_at) / RFU RASL12 (11751679_a_at) / Fold change /veh RASL12 (11751679_a_at) / RFU CDKN2B (11736163_a_at) / Fold change /veh CDKN2B (11736163_a_at) / RFU PRF1 (11729649_at) / Fold change /veh PRF1 (11729649_at) / RFU, ZNF638 /// ZNF638-IT1 / Fold change vs veh, ZNF638 /// ZNF638-IT1 / RFU, PANK3 / Fold change vs veh, PANK3 / RFU, SH3YL1 / Fold change vs veh, SH3YL1 / RFU, ZEB2 / Fold change vs veh, ZEB2 / RFU, NRIP1 / Fold change vs veh, NRIP1 / RFU, PTTG1IP / Fold change vs veh, PTTG1IP / RFU, CAPN2 / Fold change vs veh, CAPN2 / RFU, MED14 / Fold change vs veh, MED14 / RFU, SNORA58 / Fold change vs veh, SNORA58 / RFU, C1orf63 / Fold change vs veh, C1orf63 / RFU, LRRFIP1 / Fold change vs veh, LRRFIP1 / RFU, NDUFAF7 / Fold change vs veh, NDUFAF7 / RFU, SLC12A2 / Fold change vs veh, SLC12A2 / RFU, IBTK / Fold change vs veh, IBTK / RFU, ESF1 / Fold change vs veh, ESF1 / Fold change vs veh, TMEM50B / RFU, TAOK1 / Fold change vs veh, TAOK1 / RFU, ACBD3 / Fold change vs veh, ACBD3 / RFU, TMA16 / Fold change vs veh, TMA16 / RFU, RWDD3 / Fold change vs veh, RWDD3 / RFU, BCAT1 / Fold change vs veh, BCAT1 / RFU, EDEM3 / Fold change vs veh, EDEM3 / RFU, TMEM33 / Fold change vs veh, TMEM33 / RFU, WDR75 / Fold change vs veh, WDR75 / RFU, AHCTF1 / Fold change vs veh, AHCTF1 / RFU, TFRC / Fold change vs veh, TFRC / RFU, ZDHHC17 / Fold change vs veh, ZDHHC17 / RFU, NOM1 / Fold change vs veh, NOM1 / RFU, ARL8B / Fold change vs veh, ARL8B / RFU, ZBTB11 / Fold change vs veh, ZBTB11 / RFU, TAMM41 / Fold change vs veh, TAMM41 / RFU, KIAA1704 /// LOC100996395 / Fold change vs veh, KIAA1704 /// LOC100996395 / RFU, ING1 / Fold change vs veh, ING1 / RFU, TRMT61B / Fold change vs veh, TRMT61B / RFU, FUBP3 / Fold change vs veh, FUBP3 / RFU, TP53 / Fold change vs veh, TP53 / RFU, TNKS2 / Fold change vs veh, TNKS2 / RFU, ZFP14 / Fold change vs veh, ZFP14 / RFU, ACTR2 / Fold change vs veh, ACTR2 / RFU, PPP3R1 / Fold change vs veh, PPP3R1 / RFU, PIK3R1 / Fold change vs veh, PIK3R1 / RFU, HNRNPA1 / Fold change vs veh, HNRNPA1 / RFU, RNF170 / Fold change vs veh, RNF170 / RFU, ZNF28 / Fold change vs veh, ZNF28 / RFU, RNGTT / Fold change vs veh, RNGTT / RFU, OGT / Fold change vs veh, OGT / RFU, BRD1 / Fold change vs veh, BRD1 / RFU, MARS / Fold change vs veh, MARS / RFU, ZNF655 / Fold change vs veh, ZNF655 / RFU, FAHD1 / Fold change vs veh, FAHD1 / RFU, BDP1 / Fold change vs veh, BDP1 / RFU, LRRCC1 / Fold change vs veh, LRRCC1 / RFU, ARID1A / Fold change vs veh, ARID1A / RFU, ZNF146 / Fold change vs veh, ZNF146 / RFU, ZNF330 / Fold change vs veh, ZNF330 / RFU, GPN3 / Fold change vs veh, GPN3 / RFU, C9orf123 / Fold change vs veh, C9orf123 / RFU, N4BP2L2 / Fold change vs veh, N4BP2L2 / RFU, ARFIP1 / Fold change vs veh, ARFIP1 / RFU, FAM179B / Fold change vs veh, FAM179B / RFU, BCL10 / Fold change vs veh, BCL10 / RFU, UHRF1BP1L / Fold change vs veh, UHRF1BP1L / RFU, BET1 / Fold change vs veh, BET1 / RFU, CNOT2 / Fold change vs veh, CNOT2 / RFU, ZNF268 / Fold change vs veh, ZNF268 / Fold change vs veh, ZNF507 / RFU, DGCR2 / Fold change vs veh, DGCR2 / RFU, WDSUB1 / Fold change vs veh, WDSUB1 / Fold change vs veh, HSP90B1 /// MIR3652 / RFU, ADSS / Fold change vs veh, ADSS / RFU, GK / Fold change vs veh, GK / RFU, ZNF148 / Fold change vs veh, ZNF148 / RFU, TAF9 / Fold change vs veh, TAF9 / RFU, SLC1A5 / Fold change vs veh, SLC1A5 / RFU, SLMO2 / Fold change vs veh, SLMO2 / RFU, ABCC4 / Fold change vs veh, ABCC4 / RFU, LOC101060439 /// RAP1B / Fold change vs veh, LOC101060439 /// RAP1B / RFU, RFX7 / Fold change vs veh, RFX7 / RFU, GTPBP10 / Fold change vs veh, GTPBP10 / RFU, CNEP1R1 / Fold change vs veh, CNEP1R1 / RFU, BIVM-ERCC5 /// ERCC5 / Fold change vs veh, BIVM-ERCC5 /// ERCC5 / RFU, ILF3 / Fold change vs veh, ILF3 / RFU 11762660_at / Fold change /veh 11762660_at / RFU VCAN (11757783_s_at) / Fold change /veh VCAN (11757783_s_at) / RFU DDX43 (11728927_at) / Fold change /veh DDX43 (11728927_at) / RFU KRT8 (11758188_x_at) / Fold change /veh KRT8 (11758188_x_at) / RFU NKD1 (11759106_at) / Fold change /veh NKD1 (11759106_at) / RFU SRD5A1 (11742802_a_at) / Fold change /veh SRD5A1 (11742802_a_at) / RFU TPSAB1 /// TPSB2 (11721975_s_at) / Fold change /veh TPSAB1 /// TPSB2 (11721975_s_at) / RFU GSTM3 (11746129_a_at) / Fold change /veh GSTM3 (11746129_a_at) / RFU IL23R (11737362_x_at) / Fold change /veh IL23R (11737362_x_at) / RFU TMEM51 (11727254_a_at) / Fold change /veh TMEM51 (11727254_a_at) / RFU PIWIL2 (11732686_x_at) / Fold change /veh PIWIL2 (11732686_x_at) / RFU ORM1 (11744905_x_at) / Fold change /veh ORM1 (11744905_x_at) / RFU CCDC152 (11743942_at) / Fold change /veh CCDC152 (11743942_at) / RFU ECM1 (11717891_a_at) / Fold change /veh ECM1 (11717891_a_at) / RFU IL23R (11748794_a_at) / Fold change /veh IL23R (11748794_a_at) / RFU TNFAIP8L3 (11732012_x_at) / Fold change /veh TNFAIP8L3 (11732012_x_at) / RFU MBOAT4 (11741988_at) / Fold change /veh MBOAT4 (11741988_at) / RFU 11764193_at / Fold change /veh 11764193_at / RFU TMEM53 (11763286_at) / Fold change /veh TMEM53 (11763286_at) / RFU MAGEB2 (11727129_at) / Fold change /veh MAGEB2 (11727129_at) / RFU TMEM200A (11744735_a_at) / Fold change /veh TMEM200A (11744735_a_at) / RFU CCDC152 (11751479_a_at) / Fold change /veh CCDC152 (11751479_a_at) / RFU FAM211A (11726209_a_at) / Fold change /veh FAM211A (11726209_a_at) / RFU RGS16 (11746705_a_at) / Fold change /veh RGS16 (11746705_a_at) / RFU VCAN (11755009_s_at) / Fold change /veh VCAN (11755009_s_at) / RFU RHOB (11743442_s_at) / Fold change /veh RHOB (11743442_s_at) / RFU RGS16 (11720943_a_at) / Fold change /veh RGS16 (11720943_a_at) / RFU RGS16 (11720944_at) / Fold change /veh RGS16 (11720944_at) / RFU, VPS4B / Fold change vs veh, VPS4B / RFU, CREB1 / Fold change vs veh, CREB1 / RFU, DNAJC13 / Fold change vs veh, DNAJC13 / RFU, GNAQ / Fold change vs veh, GNAQ / RFU, CDK5R1 / Fold change vs veh, CDK5R1 / RFU, ZRANB3 / Fold change vs veh, ZRANB3 / RFU, CUL4A / Fold change vs veh, CUL4A / RFU, CCNY / Fold change vs veh, CCNY / RFU, UFL1 / Fold change vs veh, UFL1 / RFU, COG3 / Fold change vs veh, COG3 / RFU, DIAPH2 / Fold change vs veh, DIAPH2 / RFU, SKA2 / Fold change vs veh, SKA2 / RFU, AFF3 / Fold change vs veh, AFF3 / RFU, LMF1 / Fold change vs veh, LMF1 / RFU, IPO11 / Fold change vs veh, IPO11 / RFU, DFFB / Fold change vs veh, DFFB / RFU, FOXP1 / Fold change vs veh, FOXP1 / RFU, CARD8 / Fold change vs veh, CARD8 / RFU, STRN3 / Fold change vs veh, STRN3 / RFU, ADK / Fold change vs veh, ADK / RFU, RASSF2 / Fold change vs veh, RASSF2 / RFU, WIPF1 / Fold change vs veh, WIPF1 / RFU, LARP1B / Fold change vs veh, LARP1B / RFU, RASA1 / Fold change vs veh, RASA1 / RFU, RB1 / Fold change vs veh, RB1 / RFU, PPFIA1 / Fold change vs veh, PPFIA1 / RFU, MAT2A / Fold change vs veh, MAT2A / RFU, CCT5 / Fold change vs veh, CCT5 / RFU, WDR92 / Fold change vs veh, WDR92 / RFU, CUX1 / Fold change vs veh, CUX1 / RFU, TTC7A / Fold change vs veh, TTC7A / RFU, TMEM135 / Fold change vs veh, TMEM135 / RFU, DEPTOR / Fold change vs veh, DEPTOR / RFU, CPM / Fold change vs veh, CPM / RFU, DNAJB6 / Fold change vs veh, DNAJB6 / RFU, CACNA2D3 / Fold change vs veh, CACNA2D3 / RFU, DTX4 / Fold change vs veh, DTX4 / RFU, TFCP2 / Fold change vs veh, TFCP2 / RFU, GMCL1 /// GMCL1P1 / Fold change vs veh, GMCL1 /// GMCL1P1 / RFU, AEBP2 / Fold change vs veh, AEBP2 / RFU, SNHG1 /// SNORD22 /// SNORD25 /// SNORD26 /// SNORD27 /// SNORD28 /// SNORD29 /// SNORD31 / Fold change vs veh, SNHG1 /// SNORD22 /// SNORD25 /// SNORD26 /// SNORD27 /// SNORD28 /// SNORD29 /// SNORD31 / Fold change (Aza/veh), C12orf56 (ProbeSet 11735607_a_at) / Fold change (ACY-1035/veh), C12orf56 (ProbeSet 11735607_a_at) / Fold change (Aza/veh), FGFR1OP (ProbeSet 11751329_s_at) / Fold change (ACY-1035/veh), FGFR1OP (ProbeSet 11751329_s_at) / Fold change (Aza/veh), VPS36 (ProbeSet 11739960_a_at) / Fold change (ACY-1035/veh), VPS36 (ProbeSet 11739960_a_at) / RFU SYPL1 (11715823_x_at) / Fold change /veh SYPL1 (11715823_x_at) / RFU IGFBP7 (11715501_s_at) / Fold change /veh IGFBP7 (11715501_s_at) / RFU REEP3 (11722064_at) / Fold change /veh REEP3 (11722064_at) / RFU IGLL1 (11728026_x_at) / Fold change /veh IGLL1 (11728026_x_at): dose or concentration left out as unconfirmed
Conditions: MV-4-11 cells, 48 hours

Structure (SMILES): Nc1ncn([C@@H]2O[C@H](CO)[C@@H](O)[C@H]2O)c(=O)n1 [azacitidine]
- Fold change /veh VCAN (11755009_s_at): 1.97

Reference: PMC5218480 (PLoS ONE, 2017)
